Literature values, collected in patent publication US20060100182A1, “Pharmaceutical compositions for the treatment of urinary incontinence” (priority 2002, published 2006).
Structures can show the parent of a compound that is named as a salt.

CCN(CC)CC#CCOC(=O)C(O)(c1ccccc1)C1CCCCC1 (stereo not drawn) [oxybutynin, 4-(diethylamino)-2-butynyl acetate ∝-cyclohexyl ∝-hydroxyphenyl hydrochloride]
systemic bioavailability (oral route, hepatic first-pass effect): ~6% | maximum plasmatic levels (oral route, recommended doses, 5 mg tablets): 8 to 18 ng/mL | elimination half-life (statutory information DITROPAN, Vidal 2001): 2 h
